These results are taken from patent publication EP0986568B1, “NOVEL CLASS OF NUCLEIC ACID CATIONIC TRANSFECTING AGENTS” (Aventis Pharma S.A., priority 1997, dated 1998).

In this test the test system is ADN. The test is described as follows: Association with DNA, ethidium bromide fluorescence. The test is classed as binding. The settings on record: 6 nmoles d'agent transfectant/µg d'ADN, 5 µg bromure d'éthidium/ml; for fluorescence dans le chlorure de sodium NaCl à 300 mM: NaCl 300 mM; for fluorescence dans l'eau: in water. An excerpt: • Les purifications sur HPLC (High Performance Liquid Chromatography) ont été effectuées avec un appareil Waters LC 4000, sur une colonne Vydac C4 éluée par un gradient d'acétonitrile dans l'eau. • Les mesures de fluorescence ont été réalisées sur Perkin Elmer LS50B, en utilisant des longueurs d'onde d'excitation et d'émission respectivement de 260 nm et 590 nm. Les largeurs de fentes pour l'excitation et l'émission sont réglées à 5 nm. La valeur de fluorescence est enregistrée après ajout de 5 µg de bromure d'éthidium/ml en concentration finale. • Les spectres de résonance magnétique nucléaire (RMN) ont été enregistrés, à 300,13 MHz pour le proton ou à 75,47 MHz pour le carbone, sur un appareil Bruker MSL 300 dans le chloroforme deutérié.
Les agents transfectants selon l'invention ont été mis en solution dans l'eau à 10 mM. Les solutions ainsi obtenues sont transparentes et correspondent à une organisation sous forme de micelles de lipide cationique.
Les complexes agent tranfectant/ADN ont été réalisés suivant un rapport de 6 nmoles d'agent transfectant/µg d'ADN.

Consider “méthyl-dioctadécylamido-succinyl-6-tri-O-(amino-2'-éthyl)-2,3,4-β-D-galactopyranoside [8(a)]”, for which the “fluorescence dans le chlorure de sodium NaCl à 300 mM” value is recorded as 55% and the “fluorescence dans l'eau” value turned out to be 6%.
Taken in the same sequence, the figures for “méthyl-dioctadécylamido-phtalyl-6-tri-O-(amino-2'-éthyl)-2,3,4-β-D-galactopyranoside [8(b)]” were 60% and 7%.
